Assay [1] deals with Escherichia coli. Briefly: Antimicrobial activity against Escherichia coli at 50 ug/6 mm disk by paper disk method. It counts as functional, organism-based.
In assay [2] the test system is HeLa. The experiment in a line: Cytotoxicity against human HeLa cells by MTT assay. It is filed as functional, cell-based.

The values that follow come from ChEMBL document CHEMBL1141278, “Naamidines H and I, cytotoxic imidazole alkaloids from the Indonesian marine sponge Leucetta chagosensis” (J Nat Prod, 2007).

Structures are written as SMILES. Converted amounts (≈) assume the structure as drawn. The source made the active and inactive calls. The rule behind the calls is not given here.

As to `COc1ccc(Cc2[nH]/c(=N\C3=NC(=O)N(C)C3=O)n(C)c2Cc2cc(OC)c(O)c(OC)c2)cc1` [NAAMIDINE H], in assay [1], the result was inactive. Further, half-maximal inhibition in assay [2] (IC50) required 5.6 µg/mL (≈ 11.3 µM).
As for `C/N=C1N=C(/N=c2\[nH]c(Cc3ccc(OC)cc3)c(Cc3cc(OC)c(O)c(OC)c3)n2C)C(=O)N\1C` [NAAMIDINE I], the outcome in assay [1] was inactive. The same compound had a half-inhibitory concentration (IC50) in assay [2] of 15 µg/mL (≈ 29.6 µM).

The IC50 is the point on the concentration scale where inhibition reaches its midpoint. Lower therefore signals greater potency in that assay.
